Data from ChEMBL document CHEMBL4130359, “Indazole-based ligands for estrogen-related receptor α as potential anti-diabetic agents” (Eur J Med Chem, 2017).
The source made the active and inactive calls. The calls are words filed in the database; no cut-off is given here.

Tests used:
Rattus norvegicus [1] = experiment: Effect on PPP2R5B gene expression in epididymal white adipose tissue of Zucker rat sub-chronic fa/fa prediabetic model at 10 mg/kg, po qd for 15 days by microarray analysis relative to control; format: functional
Rattus norvegicus [2] = experiment: Toxicity in Zucker rat sub-chronic fa/fa prediabetic model assessed as epididymal white adipose tissue weight at 10 mg/kg, po qd for 31 days measured on day 32 (reference value: 13.9 +/- 0.6 g); format: organism-based; settings: in vivo, 744 h
Rattus norvegicus [3] = experiment: Antidiabetic activity in po dosed Zucker rat chronic ob/ob model assessed as reduction in HbA1c level administered once daily for 31 days measured on day 28 post dose by OGTT; format: functional, organism-based
[4] = Cmax in CD-1 mouse at 20 mg/kg administered via oral gavage by LC-MS analysis; format: ADME, organism-based; parameters: dose 20 mg/kg, route oral; settings: in vivo
[5] = Cmax in […] chronic ob/ob model at 3 mg/kg, po qd for 28 days measured on day 28 post last dose; format: ADME, organism-based; parameters: dose 3 mg/kg, route oral; settings: in vivo
Rattus norvegicus [6] = experiment: Toxicity in […] model assessed as serum creatinine level at 10 mg/kg, po qd for 31 days measured on day 32 (reference value: 0.55 +/- 0.018 mg/dl); format: organism-based; settings: in vivo, 744 h
Rattus norvegicus [7] = experiment: Effect on NFATC4 gene expression in epididymal white adipose tissue of Zucker rat sub-chronic fa/fa prediabetic model at 10 mg/kg, po qd for 15 days by microarray analysis relative to control; format: functional
Rattus norvegicus [8] = experiment: Antidiabetic activity in […] model assessed as HbA1C level at 3 mg/kg, po qd for 31 days measured on day 32 post dose (reference value: 5.9 +/- 0.18%); format: functional
Rattus norvegicus [9] = experiment: Effect on IGFBP4 gene expression in epididymal white adipose tissue of Zucker rat sub-chronic fa/fa prediabetic model at 10 mg/kg, po qd for 15 days by microarray analysis relative to control; format: functional
[10] = Drug uptake in muscle of Zucker rat sub-chronic fa/fa prediabetic model at 12.5 mg/kg, po qd for 11 days; format: ADME, organism-based, Muscle tissue; settings: read-out: Drug uptake
[11] = Cmax in Zucker rat sub-chronic fa/fa prediabetic model at 3 mg/kg, po qd measured on day 1 post dose; format: ADME, organism-based; parameters: dose 3 mg/kg, route oral; settings: in vivo
Rattus norvegicus [12] = experiment: Toxicity in […] chronic ob/ob model assessed as change in body weight at 10 mg/kg, po qd for 28 days measured on day 1 to 28 during compound dosing (reference value: 9.9 +/- 1.27 g); format: organism-based; settings: in vivo, 672 h
Rattus norvegicus [13] = experiment: Antidiabetic activity in Zucker rat sub-chronic fa/fa prediabetic model assessed as increase in serum adiponectin level at 50 mg/kg, po qd for 32 days by ELISA relative to control; format: functional
Rattus norvegicus [14] = experiment: Toxicity in […] model assessed as serum BUN level at 3 mg/kg, po qd for 31 days measured on day 32 (reference value: 28.3 +/- […]); format: organism-based; settings: in vivo, 744 h
[15] = AUC (0 to 24 hrs) in Zucker rat sub-chronic fa/fa prediabetic model at 50 mg/kg, po qd measured on day 1 post dose; format: ADME, organism-based; parameters: dose 50 mg/kg, time < 24 hr, route oral; settings: in vivo
[16] = AUC (0 to 24 hrs) in Zucker rat sub-chronic fa/fa prediabetic model at 10 mg/kg, po qd for 26 days measured on day 26 post last dose; format: ADME, organism-based; parameters: dose 10 mg/kg, time < 24 hr, route oral; settings: in vivo
Rattus norvegicus [17] = experiment: Antidiabetic activity in Zucker rat sub-chronic fa/fa prediabetic model assessed as blood glucose AUC (0 to 120 min) at 50 mg/kg, po qd for 31 days measured on day 29 post dose by OGTT (reference value: 41471 +/- 2451 mg.min/dL); format: functional
Rattus norvegicus [18] = experiment: Toxicity in Zucker rat sub-chronic fa/fa prediabetic model assessed as serum creatinine level at 10 mg/kg, po qd for 31 days measured on day 32 (reference value: 0.71 +/- 0.07 mg/dl); format: organism-based; settings: in vivo, 744 h
Rattus norvegicus [19] = experiment: Effect on IKBKB gene expression in epididymal white adipose tissue of Zucker rat sub-chronic fa/fa prediabetic model at 10 mg/kg, po qd for 15 days by microarray analysis relative to control; format: functional
Rattus norvegicus [20] = experiment: Effect on NDUFS2 gene expression in epididymal white adipose tissue of Zucker rat sub-chronic fa/fa prediabetic model at 10 mg/kg, po qd for 15 days by microarray analysis relative to control; format: functional
Rattus norvegicus [21] = experiment: Toxicity in Zucker rat sub-chronic fa/fa prediabetic model assessed as food intake at 3 mg/kg, po qd for 29 days measured on day 1 to 29 during compound dosing (reference value: 969 +/- 18 g); format: organism-based; settings: in vivo, 696 h
[22] = AUC (0 to 24 hrs) in […] at 15 mg/kg administered via oral gavage by LC-MS analysis; format: ADME, organism-based; parameters: dose 15 mg/kg, time < 24 hr, route oral; settings: in vivo
Rattus norvegicus [23] = experiment: Antidiabetic activity in Zucker rat sub-chronic fa/fa prediabetic model assessed as fasting blood insulin level at 50 mg/kg, po qd for 31 days measured on day 29 post dose (reference value: 8.5 +/- 1.4 ug/L); format: functional
[24] = AUC (0 to 24 hrs) in Zucker rat sub-chronic fa/fa prediabetic model at 3 mg/kg, po qd for 26 days measured on day 26 post last dose; format: ADME, organism-based; parameters: time < 24 hr, dose 3 mg/kg, route oral; settings: in vivo
Rattus norvegicus [25] = experiment: Toxicity in […] model assessed as serum cholesterol level at 50 mg/kg, po qd for 31 days measured on day 32 (reference value: 195 +/- 5.5 mg/dl); format: organism-based; settings: in vivo, 744 h
[26] = Cmax in Zucker rat sub-chronic fa/fa prediabetic model at 10 mg/kg, po qd for 26 days measured on day 26 post last dose; format: ADME, organism-based; parameters: dose 10 mg/kg, route oral; settings: in vivo
Rattus norvegicus [27] = experiment: Increase in ADIPOQ mRNA expression in epididymal white adipose tissue of Zucker rat sub-chronic fa/fa prediabetic model at 10 mg/kg, po qd for 15 days by RT-PCR method; format: functional, organism-based
Rattus norvegicus [28] = experiment: Toxicity in Zucker rat sub-chronic fa/fa prediabetic model assessed as epididymal white adipose tissue weight at 3 mg/kg, po qd for 31 days measured on day 32 (reference value: 13.9 +/- 0.6 g); format: organism-based; settings: in vivo, 744 h
[29] = Cmax in […] at 15 mg/kg administered via oral gavage by LC-MS analysis; format: ADME, organism-based; parameters: dose 15 mg/kg, route oral; settings: in vivo
Rattus norvegicus [30] = experiment: Effect on TNFRSF1B gene expression in epididymal white adipose tissue of Zucker rat sub-chronic fa/fa prediabetic model at 10 mg/kg, po qd for 15 days by microarray analysis relative to control; format: functional
Rattus norvegicus [31] = experiment: Antidiabetic activity in […] model assessed as HbA1C level at 50 mg/kg, po qd for 31 days measured on day 32 post dose (reference value: 5.9 +/- 0.18%); format: functional
Rattus norvegicus [32] = experiment: Antidiabetic activity in […] chronic ob/ob model assessed as increase in plasma adiponectin level administered po qd for 31 days measured on day 32 by ELISA; format: functional, organism-based
[33] = Cmax in Zucker rat sub-chronic fa/fa prediabetic model at 3 mg/kg, po qd for 26 days measured on day 26 post last dose; format: ADME, organism-based; parameters: dose 3 mg/kg, route oral; settings: in vivo
Rattus norvegicus [34] = experiment: Toxicity in […] model assessed as serum cholesterol level at 3 mg/kg, po qd for 31 days measured on day 32 (reference value: 195 +/- 5.5 mg/dl); format: organism-based; settings: in vivo, 744 h

Structure (SMILES): CN1CC[C@@H](N2C(=O)S/C(=C\c3ccc4c(cnn4Cc4ccc(Cl)cc4C(F)(F)F)c3)C2=O)[C@H](F)C1
- fold change (FC) (Rattus norvegicus [1]): 1.276
- Activity (Rattus norvegicus [2]): 19.1 g
- Activity (Rattus norvegicus [3]): Dose-dependent effect
- Cmax [4]: 2000 ng/mL
- Cmax [5]: 223 ng/mL
- Activity (Rattus norvegicus [6]): 0.44 mg/dL
- fold change (FC) (Rattus norvegicus [7]): 1.383
- Activity (Rattus norvegicus [8]): 5.7%
- fold change (FC) (Rattus norvegicus [9]): -1.825
- concentration at 264 h [10]: 2820 ng/g
- Cmax [11]: 725 ng/mL
- Activity (Rattus norvegicus [12]): 8.7 g
- fold change (FC) (Rattus norvegicus [13]): 3.3
- Activity (Rattus norvegicus [14]): 25.5 mg/dL
- AUC(0-t) at 24 h [15]: 92000 ng·h/mL
- AUC at 24 h [16]: 23900 ng·h/mL
- Activity (Rattus norvegicus [17]): 16701 mg·min/dL
- Activity (Rattus norvegicus [18]): 0.57 mg/dL
- fold change (FC) (Rattus norvegicus [19]): -1.241
- fold change (FC) (Rattus norvegicus [20]): 1.224
- Activity (Rattus norvegicus [21]): 1067 g
- AUC(0-t) at 24 h [22]: 34500 ng·h/mL
- Activity (Rattus norvegicus [23]): 0.7 µg/L
- AUC at 24 h [24]: 10800 ng·h/mL
- Activity (Rattus norvegicus [25]): 145 mg/dL
- Cmax [26]: 2900 ng/mL
- Activity (Rattus norvegicus [27]): Active
- Activity (Rattus norvegicus [28]): 17.8 g
- Cmax [29]: 4020 ng/mL
- fold change (FC) (Rattus norvegicus [30]): -1.505
- Activity (Rattus norvegicus [31]): 5%
- Activity (Rattus norvegicus [32]): Dose-dependent effect
- Cmax [33]: 1220 ng/mL
- Activity (Rattus norvegicus [34]): 171 mg/dL
